Source: patent US10857230B2, “Co-therapy comprising a small molecule CSF-1R inhibitor and an agonistic antibody that specifically binds CD40 for the treatment of cancer” (Janssen Biotech, Inc., priority 2017, dated 2020)
Several values for one entry are separate records, joined by “and”; a condition that tells them apart may be missing. Identical values can stand only once.

Test system: CT26 murine colon carcinoma cells
Assay: CT26 Tumor Size Assay (Example 2)
Format: in vivo, BALB/c mice
Conditions: for Median TTE: 39-day study
Method: The animals were fed ad libitum water (reverse osmosis, 1 ppm CI) and NIH 31 Modified and Irradiated Lab Diet® consisting of 18.0% crude protein, 5.0% crude fat, and 5.0% crude fiber. The mice were housed on irradiated Enrich-o'Cobs™ bedding in static microisolators on a 12-hour light cycle at 20-22° C. (68-72° F.) and 40-60% humidity.
CT26 murine colon carcinoma cells were grown in RPMI-1640 medium containing 10% fetal bovine serum, 2 mM glutamine, 100 units/mL penicillin G sodium, 100 μg/mL streptomycin sulfate, and 25 μg/mL gentamicin. The cells were cultured in tissue culture flasks in a humidified incubator at 37° C., in an atmosphere of 5% CO2 and 95% air.
The CT26 colon cells used for implantation were harvested during log phase growth and re-suspended in cold PBS. Each mouse was injected subcutaneously in the right flank with 3×10^5 tumor cells (0.1 mL cell suspension) and tumors were monitored as their volumes approached the target range of 75 to 125 mm3. Fourteen days after tumor implantation, on Day 1 of the study, animals with individual tumor volumes ranging from 75 to 125 mm^3 were sorted into fourteen groups (n=10) with group mean tumor volumes of 118-119 mm3. Tumors were measured with calipers twice weekly in two dimensions.
where w=width and l=length, in mm, of a tumor. Tumor weight was estimated with the assumption that 1 mg is equivalent to 1 mm3 of tumor volume.
The compound of formula (I), rat IgG2a (Clone 2A3) (5.55 mg/mL), anti-mCD40 (Clone FGK45) (5.46 mg/mL, purchased from BioXCell, anti-mouse CD40, Clone: FGK45, SKU: 13E0016-2, Lot No. 4699/0614B), and anti-CSF1R (5.41 mg/mL, purchased from BioXCell anti-mouse CSF1R (CD115), Clone: AFS98, SKU: BE0213, Lot No. 5248/0814) were used as test compounds, alone and in combination. The compound of formula (I) was stored at room temperature and antibody stock solutions were stored at 4° C. upon receipt.
Each week of dosing, the compound of formula (I) was dissolved in 0.5% HPMC to yield a 1.0 mg/mL dosing solution. The dosing solution was stored at 4° C., protected from light. The rat IgG2a isotype and anti-CSF1R dosing solutions were prepared fresh each day by diluting aliquots of the stock solutions with PBS to yield 1.0 mg/mL dosing solutions. The dosing solutions were stored at 4° C., protected from light. The anti-mCD40 dosing solution was prepared fresh each day by diluting an aliquot of the stock solution with PBS to yield a 0.5 mg/mL dosing solution. The dosing solution was stored at 4° C., protected from light.
On Day 1 of the study, fourteen groups of BALB/c mice (n=10) began dosing according to the following protocol.
The vehicle (0.5% HPMC) and the compound of formula (I) were administered orally (p.o.). The rat IgG2a isotype control, anti-mCD40, and anti-CSF1R were administered intraperitoneally (i.p.). Rat IgG2a(2A3), the compound of formula (I) and the anti-CSF1R were administered at 10 mg/kg. The anti-mCD40 was administered at 5 mg/kg. The dosing volume for all animals was 10 mL/kg (0.2 mL per 20-g mouse) and was adjusted for body weight.
Tumors were measured using calipers twice per week. The study endpoint was originally defined as a mean tumor volume of 1500 mm^3 in the control group or 60 days, whichever came first. Day 15 was chosen for TGI analysis. The MTV (n), the median tumor volume for the number of animals, n, on Day 15, was determined for each group. Percent tumor growth inhibition (% TGI) was defined as the difference between the MTV of the designated control group (Group 1) and the MTV of the drug-treated group, expressed as a percentage of the MTV of the control group: […]
The data set for TGI analysis includes all animals in a group, except those that die due to treatment-related (TR) or non-treatment-related (NTR) causes.
Animals were monitored individually for tumor growth until Day 39. The study protocol specified a tumor growth delay assay based on the median time-to-endpoint (TTE) in a treated group versus the control group. […]

[1] = Groups 3-7: all dosing from Day 1 (antibodies i.p. Days 1, 5, 9, formula (I) p.o. bid×14), formula (I) and anti-CSF1R 10 mg/kg, anti-mCD40 5 mg/kg, vs rat IgG2a control Group 1
[2] = Groups 9, 11, 13, 14: formula (I) 10 mg/kg p.o. bid×14 beginning Day 4 or anti-CSF1R 10 mg/kg i.p. Days 4, 8, 12, in combinations anti-mCD40 5 mg/kg i.p. Days 1, 5, 9, vs rat IgG2a control Group 1

With `CC1(C)CC=C(c2nc(C3CC(C)(C)OC(C)(C)C3)ccc2NC(=O)c2nc(C#N)c[nH]2)CC1` [compound of formula (I), 4-cyano-N-(2-(4,4-dimethylcyclohex-1-en-1-yl)-6-(2,2,6,6-tetramethyltetrahydro-2H-pyran-4-yl)pyridin-3-yl)-1H-imidazole-2-carboxamide] the “MTV (n) Day 15” value (Day 15, Groups 3-7: all dosing from Day 1 (antibodies i.p. Days 1, 5, 9, formula (I) p.o. bid×14), formula (I) and anti-CSF1R 10 mg/kg, anti-mCD40 5 mg/kg) was 1913 mm^3, the “MTV (n) Day 15” value (Day 15, Groups 9, 11, 13, 14: formula (I) 10 mg/kg p.o. bid×14 beginning Day 4 or anti-CSF1R 10 mg/kg i.p. Days 4, 8, 12, in combinations anti-mCD40 5 mg/kg i.p. Days 1, 5, 9) was 1545 mm^3 and 1545 (8) mm^3 and the “% TGI” value (Day 15, vs rat IgG2a control Group 1, Groups 3-7: all dosing from Day 1 (antibodies i.p. Days 1, 5, 9, formula (I) p.o. bid×14), formula (I) and anti-CSF1R 10 mg/kg, anti-mCD40 5 mg/kg) was 23%. The “% TGI” value (Day 15, vs rat IgG2a control Group 1, Groups 9, 11, 13, 14: formula (I) 10 mg/kg p.o. bid×14 beginning Day 4 or anti-CSF1R 10 mg/kg i.p. Days 4, 8, 12, in combinations anti-mCD40 5 mg/kg i.p. Days 1, 5, 9) was 38%, the “Median TTE” value (Groups 3-7: all dosing from Day 1 (antibodies i.p. Days 1, 5, 9, formula (I) p.o. bid×14), formula (I) and anti-CSF1R 10 mg/kg, anti-mCD40 5 mg/kg, 1500 mm^3 endpoint) was 13.0 days and the “% TGD” value [1] was 7%. The T-C [1] was 0.9 days, the “Median TTE” value (Groups 9, 11, 13, 14: formula (I) 10 mg/kg p.o. bid×14 beginning Day 4 or anti-CSF1R 10 mg/kg i.p. Days 4, 8, 12, in combinations anti-mCD40 5 mg/kg i.p. Days 1, 5, 9, 1500 mm^3 endpoint) was 13.9 days and the “% TGD” value [2] was 15%. The T-C [2] was 1.8 days.
